In ChEMBL document CHEMBL1201862, “PubChem BioAssay data set” (2004):
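All cell lines were grown in 96-well plates and treated with compound for 48 hours. GI50 = concentration required for 50% inhibition of growth.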 Activity calls are given as the source filed them. Rule as the data show it: active = GI50 up to about 1.1 µM and inactive = higher.

How the values were obtained:
Assay in all cases: NCI tumour cell line growth inhibition, 48 h
NCI/ADR-RES = system: NCI/ADR-RES
HCC 2998 = system: HCC 2998
Hs-578T = system: Hs-578T
U-251 = system: U-251
HL-60 = system: HL-60
LOX IMVI = system: LOX IMVI
EKVX = system: EKVX
MDA-MB-231 = system: MDA-MB-231
UACC-257 = system: UACC-257
786-0 = system: 786-0
T47D = system: T47D
SW-620 = system: SW-620
BT-549 = system: BT-549
A549 = system: A549
COLO 205 = system: COLO 205
RXF 393 = system: RXF 393
CAKI-1 = system: CAKI-1
OVCAR-4 = system: OVCAR-4
SK-MEL-28 = system: SK-MEL-28

Measured: GI50

O=C1CC(C(CC(=O)c2ccccc2)c2ccccc2)C(=O)c2ccccc2N1 (configuration not stated)
inactive: NCI/ADR-RES 15.1 µM | HCC 2998 48.6 µM | Hs-578T 43.5 µM | U-251 84.7 µM | HL-60 31.5 µM | LOX IMVI 35.4 µM | EKVX 40.5 µM | MDA-MB-231 49 µM | UACC-257 88.5 µM | 786-0 > 100 µM | T47D 20.7 µM | SW-620 68.7 µM | BT-549 29.1 µM | A549 38.2 µM | COLO 205 54.8 µM

O=C1CC(c2ccc[nH]2)=NN1c1ccccc1
inactive: NCI/ADR-RES > 100 µM | U-251 > 100 µM | RXF 393 > 100 µM | HL-60 > 100 µM | CAKI-1 > 100 µM | LOX IMVI > 100 µM | EKVX > 100 µM | MDA-MB-231 > 100 µM | OVCAR-4 > 100 µM | UACC-257 > 100 µM | 786-0 > 100 µM | T47D > 100 µM | SW-620 > 100 µM | BT-549 > 100 µM | SK-MEL-28 > 100 µM | A549 > 100 µM | COLO 205 > 100 µM

COc1ccc(C2=NN(c3ccccc3)C(c3cc4cc(Br)ccc4nc3Cl)C2)cc1 (configuration not stated)
inactive: NCI/ADR-RES > 25 µM | Hs-578T > 25 µM | RXF 393 > 25 µM | HL-60 > 25 µM | CAKI-1 22.8 µM | LOX IMVI > 25 µM | EKVX 11.9 µM | OVCAR-4 20.3 µM | 786-0 > 25 µM | T47D > 25 µM | SW-620 24.9 µM | BT-549 > 25 µM | SK-MEL-28 > 25 µM | A549 15.1 µM | COLO 205 9.71 µM

CC(C)(C)c1ccc(C(O)(c2ccc(C(C)(C)C)cc2)c2ccc(C(C)(C)C)cc2)cc1
inactive: NCI/ADR-RES > 100 µM | HCC 2998 > 100 µM | Hs-578T 70.5 µM | U-251 > 100 µM | HL-60 > 100 µM | CAKI-1 > 100 µM | LOX IMVI > 100 µM | EKVX > 100 µM | MDA-MB-231 > 100 µM | OVCAR-4 > 100 µM | 786-0 > 100 µM | T47D > 100 µM | SW-620 > 100 µM | BT-549 > 100 µM | SK-MEL-28 > 100 µM | A549 > 100 µM | COLO 205 > 100 µM

O=C1CSC(c2ccccc2[N+](=O)[O-])N1c1ccc(-n2c(-c3ccccc3)nc3ccccc3c2=O)cc1 (configuration not stated)
inactive: NCI/ADR-RES > 100 µM | HCC 2998 46.5 µM | Hs-578T 20.8 µM | U-251 17.7 µM | HL-60 > 100 µM | CAKI-1 67.9 µM | LOX IMVI 28.6 µM | EKVX 47.4 µM | MDA-MB-231 46.3 µM | OVCAR-4 23.4 µM | UACC-257 > 100 µM | 786-0 31.4 µM | T47D 23.7 µM | SW-620 64.3 µM | BT-549 57.7 µM | SK-MEL-28 > 100 µM | A549 63.2 µM | COLO 205 99.1 µM

O=C1CC(=O)NC(NN2C(=O)CSC2c2ccc(Cl)cc2)=N1 (configuration not stated)
inactive: NCI/ADR-RES > 100 µM | HCC 2998 > 100 µM | Hs-578T 25.6 µM | U-251 36.4 µM | RXF 393 > 100 µM | CAKI-1 > 100 µM | MDA-MB-231 36.7 µM | OVCAR-4 > 100 µM | UACC-257 > 100 µM | 786-0 37.2 µM | T47D > 100 µM | SW-620 > 100 µM | BT-549 33.8 µM | SK-MEL-28 > 100 µM | A549 > 100 µM | COLO 205 > 100 µM

CSC1C(=O)Nc2ccc3ccccc3c21 (configuration not stated)
inactive: NCI/ADR-RES 29.6 µM | HCC 2998 > 100 µM | Hs-578T 15.3 µM | U-251 17.8 µM | HL-60 1.54 µM | CAKI-1 19.1 µM | LOX IMVI 15.7 µM | EKVX 15.8 µM | MDA-MB-231 23.2 µM | OVCAR-4 20.2 µM | UACC-257 19 µM | 786-0 16.1 µM | T47D 9.71 µM | SW-620 20.8 µM | BT-549 23.8 µM | SK-MEL-28 > 100 µM | A549 > 100 µM | COLO 205 22.9 µM

NCc1ccc(O)c(O)c1
inactive: NCI/ADR-RES > 100 µM | HCC 2998 > 100 µM | U-251 > 100 µM | RXF 393 > 100 µM | HL-60 12.5 µM | CAKI-1 > 100 µM | LOX IMVI > 100 µM | EKVX > 100 µM | MDA-MB-231 > 100 µM | OVCAR-4 > 100 µM | UACC-257 > 100 µM | 786-0 > 100 µM | T47D > 100 µM | SW-620 > 100 µM | BT-549 > 100 µM | SK-MEL-28 > 100 µM | A549 > 100 µM | COLO 205 > 100 µM

Cn1c2ccccc2n2c(=O)c3cccnc3c(C#N)c12
inactive: NCI/ADR-RES 70.3 µM | U-251 > 100 µM | RXF 393 > 100 µM | CAKI-1 > 100 µM | LOX IMVI 39.1 µM | EKVX > 100 µM | MDA-MB-231 > 100 µM | OVCAR-4 > 100 µM | UACC-257 > 100 µM | 786-0 > 100 µM | T47D > 100 µM | SW-620 19.6 µM | BT-549 17.5 µM | SK-MEL-28 > 100 µM | COLO 205 24.7 µM

COc1ccc(-c2nc(-c3cnccn3)n(C/C=C/c3ccccc3)n2)cc1
inactive: NCI/ADR-RES 83.4 µM | HCC 2998 > 100 µM | U-251 46.7 µM | HL-60 > 100 µM | LOX IMVI > 100 µM | MDA-MB-231 71.1 µM | OVCAR-4 21.3 µM | UACC-257 > 100 µM | 786-0 17.3 µM | T47D 48.2 µM | SW-620 > 100 µM | BT-549 40.7 µM | SK-MEL-28 35.2 µM | A549 51.6 µM | COLO 205 > 100 µM

Cn1c2c(c3ccccc31)CC(=S)N1CCCC(CC2O)C1 (configuration not stated)
inactive: NCI/ADR-RES > 100 µM | HCC 2998 > 100 µM | Hs-578T > 100 µM | U-251 > 100 µM | CAKI-1 > 100 µM | LOX IMVI > 100 µM | MDA-MB-231 > 100 µM | OVCAR-4 > 100 µM | UACC-257 > 100 µM | 786-0 > 100 µM | T47D > 100 µM | SW-620 > 100 µM | BT-549 > 100 µM | SK-MEL-28 > 100 µM | A549 > 100 µM | COLO 205 > 100 µM

CCOc1ccc(Nc2nc(N)nc(N)c2N)cc1
inactive: NCI/ADR-RES 37 µM | Hs-578T 18.2 µM | U-251 24.1 µM | HL-60 39.1 µM | CAKI-1 28.6 µM | LOX IMVI 36.2 µM | EKVX > 100 µM | MDA-MB-231 31.8 µM | OVCAR-4 18.4 µM | UACC-257 > 100 µM | 786-0 22.3 µM | T47D 21.4 µM | SW-620 33.1 µM | BT-549 23.2 µM | SK-MEL-28 > 100 µM | A549 45.2 µM | COLO 205 27.9 µM
